# Measured values as given in US8288444B2 (Codman & Shurtleff, Inc., priority 2008, dated 2012).
# Read-outs that look alike come from different tables or passages of the source.
# Tests used:
# PC 12 cells, βA (25-35) = assay: in vitro protection of PC 12 cells against beta amyloid (25-35) insult; assay type: cell-based; settings: for potency as neuroprotectant against beta amyloid relative to curcumin: both peptides
# Description: Park, J. Nat. Prod., 65, 9 Sep.
# UGT = settings: Caco-2 cells; cited from earlier work
# [1] = system: Alzheimer's Transgenic mice; settings: 160 ppm in the diet; Lim 2001; cited from earlier work
# Pgp = settings: freshly-plated and 72 hour-cultured hepatocytes; dose-dependent; cited from earlier work
# [2] = system: differentiated neuroblastoma cells; settings: Yang 2005; cited from earlier work
# [3] = system: antigen-stimulated spleen cytotoxic T-lymphocyte proliferation; settings: oral pretreatment with curcumin before MPA administration; mice; cited from earlier work
# [4] = cited from earlier work
# amyloid beta oligomers = amyloid beta oligomers (Homo sapiens, UniProt P05067); settings: cited from earlier work; for prevention of toxic beta amyloid oligomer formation in vitro: Yang
# amyloid beta oligomers, sequence (P05067 672-713 limits assumed): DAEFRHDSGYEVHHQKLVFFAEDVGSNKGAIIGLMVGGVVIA
# [5] = system: middle aged female Sprague-Dawley rats; settings: 500 ppm dietary curcumin; Frautschy 2001; cited from earlier work
# [6] = cited from earlier work; remark: listed apart in the source
# [7] = carbamazepine peak brain tissue concentration by route (Barakat)
# [8] = glycinate ester of the parent named in the row; cited from earlier work
# [9] = ester prodrug vs parent estradiol
molecule,measurement,setting,value
"O=C(C=Cc1ccc(O)cc1)CC(=O)CCc1ccc(O)cc1 [compound 34, 1,7-bis(4-hydroxyphenyl)-1-heptene-3,5-dione]",potency as neuroprotectant against beta amyloid relative to curcumin,"PC 12 cells, βA (25-35); analysis of the Park data",~10 fold
"COc1cc(/C=C/C(=O)CC(=O)/C=C/c2ccc(O)c(OC)c2)ccc1O [curcumin, (E,E)-1,7-bis(4-hydroxy-3-methoxyphenyl)-1,6-heptadiene-3,5-dione]",inhibition of UGT activity in the conjugation of 1-naphthol,UGT,moderate inhibition
same,reduction of beta amyloid plaque burden,[1],30-40%
same,reduction of the amount of soluble beta amyloid,[1],43%
same,Rhodamine-123 (R-123) efflux,Pgp,inhibited
same,curcumin concentration that blocks the in vitro toxicity of Aβ1-42 oligomers,[2],0.1 to 1.0 µM
same,increase in immunosuppression of antigen-stimulated spleen cytotoxic T-lymphocyte proliferation,[3],six-fold increase
same,solubility in water,[4],insoluble in water
same,solubility in water (parent compound),[4],about 0.004 mg/ml
same,prevention of toxic beta amyloid oligomer formation in vitro,amyloid beta oligomers; 0.25-4 uM curcumin,only minimally prevent
same,prevention of toxic beta amyloid oligomer formation in vitro,amyloid beta oligomers; 16-64 uM curcumin,completely prevent
same,curcumin concentration that inhibits the in vitro formation of amyloid beta oligomers,"amyloid beta oligomers; in vitro, Yang 2005",0.1 to 1.0 µM
same,reduction of amyloid beta deposits induced by beta amyloid infusion,[5],about 80%
"COc1cc(C=CC(=O)CC(=O)C=Cc2ccc(O)cc2)ccc1O [compound 32, 1-(4-hydroxy-3-methoxyphenyl)-7-(4-hydroxyphenyl)-1,6-heptadiene-3,5-dione]",potency as neuroprotectant against beta amyloid relative to curcumin,"PC 12 cells, βA (25-35); analysis of the Kim data",~1.5 fold
"COc1cc(/C=C/C(=O)COC(=O)/C=C/c2ccc(O)c(OC)c2)ccc1O [compound 31, 4″-(3′″-methoxy-4′″-hydroxyphenyl)-2″-oxo-3″-enebutanyl3-(3′-methoxy-4′ hydroxyphenyl) propenoate]",potency as neuroprotectant against beta amyloid relative to curcumin,"PC 12 cells, βA (25-35); analysis of the Park data",~5 fold
NC(=O)N1c2ccccc2C=Cc2ccccc21 [Carbamazepine],Carbamazepine Peak Brain Tissue,"[6]; Intranasal, 0.2 mg/kg",12 µg/g
same,Carbamazepine Peak Brain Tissue,"[6]; Intravenous, 8.0 mg/kg",4 µg/g
same,Carbamazepine Peak Brain Tissue,"[6]; Oral, 16 mg/kg",3 µg/g
same,"Carbamazepine Peak Brain Tissue, ~uM","[7]; Intranasal, 0.2 mg/kg",~48 µM
same,"Carbamazepine Peak Brain Tissue, ~uM","[7]; Intravenous, 8.0 mg/kg",~16 µM
same,"Carbamazepine Peak Brain Tissue, ~uM","[7]; Oral, 16 mg/kg",~12 µM
17β-estradiol,Half-life Of glycinate ester In plasma,[8],1 to 2 min
"O=C(C=Cc1ccc(O)cc1)CC(=O)C=Cc1ccc(O)cc1 [compound 33, 1,7-bis(4-hydroxyphenyl)-1,6-heptadiene-3,5-dione]",potency relative to natural curcumin in surviving toxic insult by β amyloid,"PC 12 cells, βA (25-35)",about twice as potent
same,potency as neuroprotectant against beta amyloid relative to curcumin,"PC 12 cells, βA (25-35); analysis of the Kim data",~2 fold
"CCN(CC)CCC(=O)Oc1ccc2c(c1)CC[C@@H]1[C@@H]2CC[C@]2(C)[C@@H](O)CC[C@@H]12.Cl [3-DEAPE2HCl, 3-N,N-diethylamino propionyl ester hydrochloride]",water solubility of estradiol modified with the moiety,[4]; Al-Ghananeem,about 20 mg/ml
same,increase in water solubility,[9],> 1000 fold
